Laboratory results taken from patent publication US20250205225A1, “METHODS OF POTENTIATING TEMOZOLOMIDE ACTIVITY AGAINST GLIOBLASTOMA CELLS” (University of Cincinnati, priority 2022, published 2025).
Where two headings read alike, the source gives them in different places. Values belong to the compound of their own block, whether it stands above or below them.

Assays:
G75 cells [1] = assay: Apoptosis induction, Caspase-Glo 3/7; format: cell-based, human; conditions: for EC50: Homo sapiens; for induction of apoptosis (caspase 3/7), in words: TMZ up to 5 μM
Protocol: (§1) Apoptosis induction assay using Caspase-Glo® 3/7 system: G75 and G76 cells were employed to assess the effects of LTZ, TMZ, and LTZ+TMZ combination treatment on induction of apoptosis through caspase 3/7 activation. Cells were seeded at a density of 1.5×10^4 cells per well in a translucent walled, clear bottom, 96-well plate. Promega Caspase-Glo® 3/7 Assay system was used to assess the caspase 3/7 levels in cells treated with LTZ, TMZ, LTZ (0.04 μM)+TMZ (0-5 μM), and vehicle (0.1% DMSO). Cells were treated for 24 h after plating. Caspase-Glo® 3/7 3D substrate and Caspase-Glo® 3/7 3D buffer was mixed to form a 10 mL reaction mixture and 100 μL of the mixture was added to each well. The reaction was allowed to proceed at room temperature in the dark for 30 minutes. The luminescence readings were carried out 24 h after the treatment using Synergy™ HTX Multi-Mode Microplate Reader. The experiment was repeated in presence of estradiol to assess the effect of estradiol on caspase induction in G75 and G76 cells.

G76 cells [2] = assay: Apoptosis induction, Caspase-Glo 3/7; format: cell-based, human; conditions: for EC50: Homo sapiens; for induction of apoptosis (caspase 3/7), in words: TMZ up to 5 μM
Protocol: as §1

[3] = tested on: patient-derived GBM lines (G76, BT-142, G75, G43); assay: Cell viability assay (CyQuant LDH), all four lines; format: cell-based, human; conditions: for IC50: Homo sapiens, BT142, 72 h
Protocol: (§2) Cell viability Assay: The cytotoxic effects of TMZ, LTZ, and various combinations of the two agents were evaluated using the CyQuant™ Lactate Dehydrogenase (LDH) assay (ThermoFisher Scientific). This assay measures the release of LDH, a cytosolic enzyme, into the extracellular medium resulting from damage to the plasma membrane. Cells (1.4×10^4) were plated in 96 well plates in serum-free medium. Twenty-four hours after seeding, cells were treated with TMZ (0-100 μM), LTZ (0-2 μM), or TMZ (0-10 μM)+LTZ (0.04 μM). Dimethyl sulfoxide (0.1%) was used as a vehicle control. The effect of adding estradiol (250 pg/ml) on cell viability was also determined.

BT-142 cells [4] = assay: Neurosphere growth inhibition; format: cell-based, human; conditions: for median neurosphere diameter: 72 h, LTZ 40 nM, TMZ 1 μM, alone or combined
Protocol: (§3) Neurosphere Growth Inhibition: Since G43 and BT-142 cells form neurospheres in culture medium, the effects of LTZ and TMZ on the growth of the neurosphere. Cells (1×10^4) were plated and 24 hours later treated with LTZ (0-2 μM), TMZ (0-100 μM) or were also determined. Cells were treated with LTZ (0.04 μM)+TMZ (0-10 μM) for 72 h cells, with DMSO (0.1%) serving as vehicle control. Neurosphere dimensions were measured using Leica Stereomicroscope in bright field setting. The effect of addition of estradiol (250 pg/ml) on the neurosphere growth was also determined.

G43 cells [5] = assay: Neurosphere growth inhibition; format: cell-based, human; conditions: for neurosphere diameter: 72 h, LTZ 40 nM, TMZ 1 μM, alone or combined, in mm
Protocol: as §3

G75 cells [6] = assay: Assessment of gamma-H2A.X (flow cytometry); format: cell-based, human; conditions: for γ-H2AX induction (DNA damage): single agent (TMZ up to 1 μM; LTZ 500 nM and 1 μM); for LTZ-mediated induction of γ-H2AX in the presence of estradiol: estradiol (250 pg/ml)
Protocol: (§4) Assessment of gamma-H2A.X: Induction of γH2A.X in G75 and G76 cells (lx 106) treated with LTZ, TMZ, and LTZ+TMZ (0-10 μM) in the presence and the absence of estradiol (250 pg/ml) was assessed using flow cytometric analysis. Based on initial assessment of the time course of γH2A.X induction, a 5 h treatment was used to capture maximal effect. Cell pellets were collected by centrifugation of the cells at 2,000×g for 5 minutes at room temperature. Cells were then washed with ice cold PBS, followed by addition of a 1:1 mixture of methanol and NP40 (300 μL) for fixation and permeabilization of the cells. Following centrifugation at 4° C. at 290×g, 100 μL of 1:250 dilution of the primary unconjugated antibody for gamma-H2A.X at room temperature were added to the cells. The cells were incubated with the primary antibody for 20 min and washed with 600 μL of 1:1 methanol and NP40 mixture. Secondary Per-CP conjugated antibody was added to the cells at a dilution of 1:1000 and incubated at room temperature in the dark for 20 minutes. Cells were washed again with 600 μL of 1:1 methanol and NP40 mixture, re-suspended in 1×PBS, and subjected to flow cytometric analysis with the excitation wavelength of 488 nm (Beckman CytoFlex flow cytometer). […] The scatter plots were analyzed using CytExpert version 2.3 to assess the percentage of cells positive for γH2A.X versus the isotype control.

G76 cells [7] = assay: Assessment of gamma-H2A.X (flow cytometry); format: cell-based, human; conditions: for γ-H2AX induction (DNA damage): single agent (TMZ up to 1 μM; LTZ 500 nM and 1 μM); for LTZ-mediated induction of γ-H2AX in the presence of estradiol: estradiol (250 pg/ml)
Protocol: as §4

BT-142 cells [8] = assay: Cell viability assay (CyQuant LDH); format: cell-based; conditions: Homo sapiens, BT142, 72 h, single agent, read-out: IC50 (cytotoxicity)
Protocol: as §2

G75 cells [9] = assay: Cell viability assay (CyQuant LDH); format: cell-based; conditions: Homo sapiens, 72 h, single agent, read-out: IC50 (cytotoxicity)
Protocol: as §2

[10] = cited from earlier work
G43 cells [11] = assay: Cell viability assay (CyQuant LDH); format: cell-based, human; conditions: 72 h, single agent, read-out: IC50 (cytotoxicity)
Protocol: as §2

G76 cells [12] = assay: Cell viability assay (CyQuant LDH); format: cell-based, human; conditions: 72 h, single agent, read-out: IC50 (cytotoxicity)
Protocol: as §2

[13] = single agent, Emax model, read-out: EC50 for caspase 3/7 induction
[14] = LTZ 40 nM alone or combined with TMZ
[15] = with letrozole 40 nM, read-out: EC50 for caspase 3/7 induction by temozolomide in the presence of letrozole (40 nM)

EC50 (G75 cells [1]; [13]): 5.07 ± 1.1 µM
EC50 (G76 cells [2]; [13]): 1800 ± 312 nM
Structure (SMILES): N#Cc1ccc(C(c2ccc(C#N)cc2)n2cncn2)cc1 [LTZ, 4,4′-((1H-1,2,4-triazol-1-yl)methylene)dibenzonitrile]
letrozole-mediated induction of apoptosis in the presence of estradiol (G75 cells [1]; estradiol present): prevented letrozole-mediated DNA damage and induction of apoptosis
induction of apoptosis (caspase 3/7), in words (G75 cells [1]; single agent): very effective in inducing apoptosis in a concentration-dependent manner
letrozole-mediated induction of apoptosis in the presence of estradiol (G76 cells [2]; estradiol present): prevented letrozole-mediated DNA damage and induction of apoptosis
induction of apoptosis (caspase 3/7), in words (G76 cells [2]; single agent): very effective in inducing apoptosis in a concentration-dependent manner
IC50 ([3]; single agent, read-out: IC50 (cytotoxicity), range over the cell lines): 80 to 670 nM
letrozole effects in cell viability assay with estradiol added ([3]; estradiol (250 pg/ml) added to the culture media): completely abrogated the letrozole effects
median neurosphere diameter (BT-142 cells [4]): 1.1±0.077 mm
neurosphere growth inhibition (in words) (BT-142 cells [4]; [14]): minimally impacted neurosphere growth
letrozole effects in neurosphere growth inhibition assay with estradiol added (BT-142 cells [4]; estradiol (250 pg/ml) added): completely abrogated the letrozole effects
neurosphere diameter (G43 cells [5]): 1.85±0.13
neurosphere growth inhibition (in words) (G43 cells [5]; [14]): minimally impacted neurosphere growth
letrozole effects in neurosphere growth inhibition assay with estradiol added (G43 cells [5]; estradiol (250 pg/ml) added): completely abrogated the letrozole effects
γ-H2AX induction (DNA damage) (G75 cells [6]; 5 h): considerably increased γ-H2AX levels
γ-H2AX induction (DNA damage) (G75 cells [6]; 5 h, listed as Letrozole): caused DNA damage
LTZ-mediated induction of γ-H2AX in the presence of estradiol (G75 cells [6]): abrogated in the presence of estradiol
LTZ-mediated induction of γ-H2AX in the presence of estradiol (G75 cells [6]; listed as letrozole): prevented letrozole-mediated DNA damage
γ-H2AX induction (DNA damage) (G76 cells [7]; 5 h): considerably increased γ-H2AX levels
γ-H2AX induction (DNA damage) (G76 cells [7]; 5 h, listed as Letrozole): caused DNA damage
LTZ-mediated induction of γ-H2AX in the presence of estradiol (G76 cells [7]): abrogated in the presence of estradiol
LTZ-mediated induction of γ-H2AX in the presence of estradiol (G76 cells [7]; listed as letrozole): prevented letrozole-mediated DNA damage

EC50 (G75 cells [1]; [13]): 93.8 µM
EC50 (G75 cells [1]; [15]): 5.1 µM
EC50 (G76 cells [2]; [13]): 6400 nM
EC50 (G76 cells [2]; [15]): 1800 nM
IC50 ([3]; with LTZ 40 nM, read-out: TMZ IC50 in the presence of LTZ (40 nM), range for all four cell lines): 160 to 690 nM
Structure (SMILES): Cn1nnc2c(C(N)=O)ncn2c1=O [TMZ, 4-methyl-5-oxo-2,3,4,6,8-pentazabicyclo[4.3.0]nona-2,7,9-triene-9-carboxamide]
IC50 (BT-142 cells [8]): 15.3 µM
IC50 (G75 cells [9]): 107 µM
peak plasma levels ([10]; doses of 100-200 mg/m^2, listed as temozolomide): 25 to 50 µM
partitioning of the drug from plasma to the brain interstitial fluid ([10]; intracerebral microdialysis, peritumoral): 13-17%
brain interstitial fluid (peritumoral) concentrations ([10]; intracerebral microdialysis, approximately): 3 to 8 µM
induction of apoptosis (caspase 3/7), in words (G75 cells [1]; single agent): not in G75 cells
TMZ-mediated apoptosis (caspase 3/7) with LTZ (40 nM) (G75 cells [1]; with LTZ 40 nM): striking increase in TMZ-mediated apoptosis
induction of apoptosis (caspase 3/7), in words (G76 cells [2]; single agent): induced apoptosis in G76 cells
TMZ-mediated apoptosis (caspase 3/7) with LTZ (40 nM) (G76 cells [2]; with LTZ 40 nM): striking increase in TMZ-mediated apoptosis
median neurosphere diameter (BT-142 cells [4]): 0.9±0.023 mm
neurosphere diameter (G43 cells [5]): 1.6±0.085
IC50 (G43 cells [11]): 165 µM
IC50 (G43 cells [11]; Homo sapiens): 165 µM
IC50 (G76 cells [12]): 1310 nM
IC50 (G76 cells [12]; Homo sapiens): 1300 nM
γ-H2AX induction (DNA damage), TMZ combined with LTZ (G75 cells [6]; 5 h, LTZ 40 nM + TMZ 0.1 μM): significantly enhanced DNA damage by temozolomide
γ-H2AX induction (DNA damage) (G75 cells [6]; 5 h): not in G75 cells
γ-H2AX induction (DNA damage), TMZ combined with LTZ (G76 cells [7]; 5 h, LTZ 40 nM + TMZ 0.1 μM): significantly enhanced DNA damage by temozolomide
γ-H2AX induction (DNA damage) (G76 cells [7]; 5 h): noticeable induction of γ-H2AX
